Measurements as given in ChEMBL document CHEMBL1201862, “PubChem BioAssay data set” (2004).
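Briefly, cells in 96-well plates were exposed to five compound concentrations for 48 h, and endpoints were estimated by linear interpolation. GI50: concentration for 50% inhibition of growth.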 Activity calls are given as the source filed them. Cut-off read from the data, not from the text of the source: active = GI50 up to about 1.1 µM and inactive = higher. Where a SMILES comes first, the peptide text is derived from it. [ ]: non-standard residue; d: D form. The star is where a group is joined. ξ: configuration not given here. NMeF = CN[C@@H](Cc1ccccc1)C(=O)O; NMeV = CN[C@H](C(=O)O)C(C)C; ξNMeN = CNC(CC(N)=O)C(=O)O; NMeA = CN[C@@H](C)C(=O)O; ξNMeV = CNC(C(=O)O)C(C)C; Boc = CC(C)(C)OC(=O)*

Legend:
Assay in all cases: NCI tumour cell line growth inhibition, 48 h
DMS-273 = system: DMS-273
KM-20L2 = system: KM-20L2
HOP-18 = system: HOP-18
DLD-1 = system: DLD-1
SNB-78 = system: SNB-78
XF498 = system: XF498
LXFL 529 = system: LXFL 529
DMS-114 = system: DMS-114
RXF 631 = system: RXF 631

SMILES	GI50 (DMS-273)	GI50 (KM-20L2)	GI50 (HOP-18)	GI50 (DLD-1)	GI50 (SNB-78)	GI50 (XF498)	GI50 (LXFL 529)	GI50 (DMS-114)	GI50 (RXF 631)
O=C1/C(=C/c2ccc(O)c(O)c2)CCC/C1=C\c1ccc(O)c(O)c1	2.06 µM (inactive)	11.6 µM (inactive)	2.81 µM (inactive)	2.68 µM (inactive)	2.11 µM (inactive)	3.13 µM (inactive)			
[N-]=[N+]=Nc1ccc(CCN2CCN(c3cccc(C(F)(F)F)c3)CC2)cc1I	72.6 µM (inactive)	31.3 µM (inactive)			> 100 µM (inactive)		50 µM (inactive)		
COc1ccccc1/C=C1\CCC(CN(C)C)C1=O (configuration not stated)	6.9 µM (inactive)	4.24 µM (inactive)	22.9 µM (inactive)	2.2 µM (inactive)	9.4 µM (inactive)	18.3 µM (inactive)		2.75 µM (inactive)	
COc1ccccc1/N=N/C(C(=O)c1ccccc1)C(=O)c1ccccc1	16.4 µM (inactive)	26.3 µM (inactive)		17.6 µM (inactive)		19.5 µM (inactive)	15.5 µM (inactive)	15.2 µM (inactive)	
CCOC(=O)[C@H](CCCNC(=O)OC(C)(C)C)NCc1ccc(OC)c(OC)c1	> 100 µM (inactive)	> 100 µM (inactive)	> 100 µM (inactive)	> 100 µM (inactive)		> 100 µM (inactive)	> 100 µM (inactive)	> 100 µM (inactive)	> 100 µM (inactive)
CC(=O)O[C@H]1CC[C@@]2(C)C(=C/C(=N\[N+](=O)[O-])[C@H]3C4CCC([C@H](C)CCCC(C)C)[C@@]4(C)CCC32)C1 (some centres not stated)	> 100 µM (inactive)	> 100 µM (inactive)		> 100 µM (inactive)		> 100 µM (inactive)	> 100 µM (inactive)	> 100 µM (inactive)	
CCOC(=O)NC(=O)c1cn(-c2ccc(CCOC(=O)NCCCCCCNC(=O)OCCc3ccc(-n4c(=O)[nH]cc(C(=O)NC(=O)OCC)c4=O)cc3)cc2)c(=O)[nH]c1=O	> 79.8 µM (inactive)	> 100 µM (inactive)	> 100 µM (inactive)	> 100 µM (inactive)	58.2 µM (inactive)		22.2 µM (inactive)	> 75.2 µM (inactive)	
Cn1nc(-c2ccccc2)c(C(=O)/C=C/c2ccccc2)c(N2CCCCC2)c1=O	37.7 µM (inactive)	10.4 µM (inactive)	40.8 µM (inactive)	9.35 µM (inactive)			> 100 µM (inactive)	> 100 µM (inactive)	> 100 µM (inactive)
CCCCc1c2c(nc3c1CCC/C3=C\c1ccccc1)/C(=C/c1ccccc1)CCC2	> 100 µM (inactive)	> 100 µM (inactive)				> 100 µM (inactive)	> 100 µM (inactive)	> 100 µM (inactive)	
CCOC(=O)C1(C)C2=CC=C(O2)C(C)(C)C2=CC=C(O2)C(C)(C)C2=CC=C(O2)C(C)(C)C2=CC=C1O2	> 100 µM (inactive)	> 100 µM (inactive)	> 100 µM (inactive)		> 100 µM (inactive)	> 100 µM (inactive)	> 100 µM (inactive)		> 100 µM (inactive)
C#CCN(C(=O)C(F)(F)F)c1ccc(C(=O)c2ccc(N(CC#C)C(=O)C(F)(F)F)cc2)cc1	24.1 µM (inactive)	> 100 µM (inactive)		37.6 µM (inactive)	52.4 µM (inactive)		27.7 µM (inactive)	20.7 µM (inactive)	
COc1ccc2c(c1)c1c3n2CCNN=C3CCC1	> 100 µM (inactive)	> 100 µM (inactive)	> 100 µM (inactive)	> 100 µM (inactive)	> 37.7 µM (inactive)	> 100 µM (inactive)	> 100 µM (inactive)	74.6 µM (inactive)	68.4 µM (inactive)
O=C(O)c1ccc(S(=O)(=O)c2ccccc2)c([N+](=O)[O-])c1	63.8 µM (inactive)	> 100 µM (inactive)	> 100 µM (inactive)	> 100 µM (inactive)	> 100 µM (inactive)		> 100 µM (inactive)	> 100 µM (inactive)	
CCOC(=O)C1=C(Nc2ccc(Br)cc2)OC/C1=N\NC(=O)c1ccccc1O	4.69 µM (inactive)	> 60 µM (inactive)	70.5 µM (inactive)	18 µM (inactive)	7.93 µM (inactive)		14.5 µM (inactive)		
O=C(NC1C=Nc2ccccc2NC1=O)c1ccccc1Cl (configuration not stated)	26.8 µM (inactive)	55.6 µM (inactive)	48 µM (inactive)	59.2 µM (inactive)	93.1 µM (inactive)	22.2 µM (inactive)	28.6 µM (inactive)	16.1 µM (inactive)	22 µM (inactive)
O=C(CC(=O)Nc1ccc(Cl)cc1)NNCC(=O)Nc1nc(-c2ccccc2)cs1	> 100 µM (inactive)	59.6 µM (inactive)	> 100 µM (inactive)	> 100 µM (inactive)	> 100 µM (inactive)	> 100 µM (inactive)	75.7 µM (inactive)	> 100 µM (inactive)	
C[Si](C)(C)C(CCCCSc1ccccc1)(Sc1ccccc1)Sc1ccccc1	> 100 µM (inactive)	> 10 µM (inactive)		> 100 µM (inactive)	> 100 µM (inactive)	> 100 µM (inactive)	78.2 µM (inactive)	> 100 µM (inactive)	> 100 µM (inactive)
CC(=O)NC(CC(C)C)C(=O)NC(Cc1ccccc1)C(=S)N1CCCC1 (configuration not stated)	> 100 µM (inactive)	> 100 µM (inactive)				> 100 µM (inactive)	> 100 µM (inactive)	> 100 µM (inactive)	> 100 µM (inactive)
CC(C)(C)c1ccc(OC2CCO2)cc1 (configuration not stated)	34.4 µM (inactive)	19.5 µM (inactive)	> 100 µM (inactive)		49.9 µM (inactive)		54.6 µM (inactive)	39.5 µM (inactive)	
COC(=O)C1C=CCC2CCCCC21N1CCCC1 (configuration not stated)	> 100 µM (inactive)	83.2 µM (inactive)	> 100 µM (inactive)	> 100 µM (inactive)	> 100 µM (inactive)		81.5 µM (inactive)	36.1 µM (inactive)	> 100 µM (inactive)
O=c1cnn2c(n1)sc1ccc3ccccc3c12	> 100 µM (inactive)	> 100 µM (inactive)	> 100 µM (inactive)	> 100 µM (inactive)	> 100 µM (inactive)	> 100 µM (inactive)	> 100 µM (inactive)	> 100 µM (inactive)	
CC(C)NC(C)Cc1ccccc1 (configuration not stated)	> 100 µM (inactive)	> 100 µM (inactive)	> 100 µM (inactive)	> 100 µM (inactive)	> 100 µM (inactive)		> 100 µM (inactive)	> 100 µM (inactive)	> 100 µM (inactive)
COC(=O)/C(C)=C(/CCC1(C)OCCO1)O[Si](C)(C)C	> 100 µM (inactive)	> 100 µM (inactive)	> 100 µM (inactive)	> 100 µM (inactive)	> 100 µM (inactive)	> 100 µM (inactive)	> 100 µM (inactive)	> 100 µM (inactive)	
COC(=O)[C@H](C)N(C)C(=O)C(CC(N)=O)N(C)C(=O)[C@H](Cc1ccccc1)N(C)C(=O)[C@@H]1CCCN1C(=O)[C@H](C(C)C)N(C)C(=O)C(C(C)C)N(C)C(=O)[C@@H](NC(=O)OC(C)(C)C)C(C)C (some centres not stated) (Boc-V[ξNMeV][NMeV]P[NMeF][ξNMeN][NMeA]-OMe)	55.5 µM (inactive)	39.2 µM (inactive)		43.7 µM (inactive)	50.6 µM (inactive)	26.7 µM (inactive)	24.2 µM (inactive)	16.8 µM (inactive)	
C[C@H]1C/C=C/[C@H]2[C@@H]3O[C@]3(C)[C@@H](C)[C@H]3[C@H](Cc4ccccc4)NC(=O)[C@]32OC(=O)O/C=C/[C@@](C)(O)C1=O [CYTOCHALASIN E]	0.091 µM (active)	0.0248 µM (active)			0.0189 µM (active)	0.0183 µM (active)		0.0548 µM (active)	
